Where two headings read alike, the source gives them in different places.
Experiments:
Human Cytochrome P450 [1] = assay: Protocol C: human cytochrome P450-mediated biotransformation of terfenadine in human hepatic S9; format: biochemical
Procedure: Protocol C: Assessment of Human Cytochrome P450-Mediated Biotransformation
The process of preparing incubation mixtures begins by mixing 10 uL of ethanol or an ethanolic solution containing an inhibitor with 100 uL of 100 mg/mL bovine serum albumin (Sigma) dissolved in reaction buffer at room temperature. Reaction buffer is composed of 0.10 M sodium phosphate, 1.0 mM ethylenediaminetetraacetic acid, and 5.0 mM magnesium chloride, pH 7.4 (all reagents: Fisher Scientific). Inhibitory chemicals used were ketoconazole (Research Diagnostics, Inc.), miconazole, bergapten, xanthotoxin (previous three from Sigma), bergamotin, imperatorin, isopimpinellin, psoralen, angelicin (previous five from Indofine Chemical Company, Inc.), and fractions or precipitates resulting from Protocols A, A′, B, B′, or B″ above. When possible, final inhibitor concentrations were expressed in molarity by calculation from the weighed material or by interpolation from HPLC calibration curves prepared with reference materials; otherwise, concentrations are expressed as weight per volume. Reaction tubes are placed on ice in preparation for the manipulations that follow. Sufficient reaction buffer is added so that the final volume of each tube will be 500 uL, 5 uL of a 100-fold concentrate for generating reduced nicotinamide adenine dinucleotide phosphate is added (such that completed reaction mixture contains 1.0 mM nicotinamide adenine dinucleotide phosphate, 1 U/mL glucose-6-phosphate dehydrogenase, and 10 mM glucose-6-phosphate; all from Sigma), and then human hepatic S9 (Anatomic Gift Foundation) is thawed and added in sufficient amounts to cause readily detectable amounts of metabolites to be formed in control reactions (amount necessary varies among individuals, but 10 uL is typical).
The samples prepared above are readied for HPLC assessment using the protocol that follows. Each tube is vortex mixed and centrifuged for 10 min at setting 35, the resulting supernatant is transferred to a clean tube, and the liquid is evaporated using a Speed Vac apparatus. The residue in each tube is first dissolved in 40 uL 1:1 acetonitrile:water, 2.5 mL of acetonitrile is added, and the centrifuge-transfer-evaporate step just described is repeated.
Linear gradients are used for elution and are formed by mixing mobile phase A composed of water with mobile phase B composed of 0.025% (v/v) formic acid in acetonitrile (instrument: Hewlett Packard). The elution time, in minutes, the percentage of mobile phase B present in the mixed mobile phase, and the flow rate (mL/min) are as follows: 0, 10, 0.10; 2, 10, 0.10; 3.5, 10, 0.20; 4, 10, 0.25; 5, 10, 0.25; 30, 55, 0.25; 32, 98, 0.25; 33, 98, 0.40; 39.8, 98, 0.40; 40, 98, 0.25; 45, 10, 0.25; 45.25, 10, 0.20; 50, 10, 0.20; 50.25, 10, 0.10. The chromatographic column has dimensions of 150 mm length×2.1 mm internal diameter, is packed with a proprietary material (Prism, Keystone Scientific, Inc.), is protected with a 2 mm internal diameter column containing the same material and with a PTFE filter, and is maintained at 35+/−0.2° C. The dry sample residue is mixed with 60 uL of 1:1 acetonitrile:water followed by 40 uL water just prior to each 50.25 min run cycle. The column eluate from each 10 uL injection is monitored for fluorescence with excitation at 228 nm, emission at 291 nm, and bandpass filtration at 280 nm.

Human Cytochrome P450 [2] = assay: Protocol C′: human cytochrome P450-mediated biotransformation of saquinavir in human hepatic S9; format: biochemical
Procedure: Protocol C′: Assessment of Human Cytochrome P450-Mediated Biotransformation
The process of preparing incubation mixtures begins by mixing 10 uL of ethanol (control reactions) or an ethanolic solution containing an inhibitor with 100 uL of 100 mg/mL bovine serum albumin (Sigma) dissolved in reaction buffer at room temperature. Reaction buffer is composed of 0.10 M sodium phosphate, 1.0 mM ethylenediaminetetraacetic acid, and 5.0 mM magnesium chloride, pH 7.4 (all reagents: Fisher Scientific). […] Sufficient reaction buffer is added so that the final volume of each tube will be 500 uL, 5 uL of a 100-fold concentrate for generating reduced nicotinamide adenine dinucleotide phosphate is added (such that completed reaction mixture contains 1.0 mM nicotinamide adenine dinucleotide phosphate, 1 U/mL glucose-6-phosphate dehydrogenase, and 10 mM glucose-6-phosphate; all from Sigma), and then human hepatic S9 (Anatomic Gift Foundation) is thawed and added in sufficient amounts to cause readily detectable amounts of metabolites to be formed in control reactions (amount necessary varies among individuals, but 10 uL is typical). […]
The samples prepared above are readied for HPLC assessment using the protocol that follows. […]

[3] = heart transplant patients, cyclosporin co-administered with ketoconazole; cited from earlier work
[4] = oral tablet; cited from earlier work
[5] = protocol not given, Protocol C or C′

In the case of CC(C)=CCOc1c2occc2cc2ccc(=O)oc12 [imperatorin], the “first-pass effect inhibition, determined herein” value (“first-pass effect inhibition” below) (Human Cytochrome P450 [1]; [5]) is reported as “ineffective” and the “first-pass inhibition (generation of saquinavir metabolites in presence of inhibitor)” value (Human Cytochrome P450 [2]; Protocol C′, human hepatic S9, FIG. 1) is reported as “essentially ineffective”.

In the case of CC(=O)N1CCN(c2ccc(OCC3COC(Cn4ccnc4)(c4ccc(Cl)cc4Cl)O3)cc2)CC1 (centres unmarked) [ketoconazole], the “reduction of the dose of cyclosporin required” value [3] is listed as “approximately 85%”.

In the case of O=c1ccc2ccc3occc3c2o1 [angelicin], the “first-pass effect inhibition” value (Human Cytochrome P450 [1]; [5]) is reported as “ineffective”.

In the case of COc1c2ccoc2c(OC)c2oc(=O)ccc12 [isopimpinellin], the “first-pass effect inhibition” value (Human Cytochrome P450 [1]) is reported as “ineffective”.

With O=c1ccc2cc3ccoc3cc2o1 [psoralen] the “first-pass effect inhibition” value (Human Cytochrome P450 [1]; [5]) was “ineffective”.

For CC(C)=CCC/C(C)=C/COc1c2ccoc2cc2oc(=O)ccc12 [bergamottin], the “first-pass effect inhibition” value (Human Cytochrome P450 [1]) was “ineffective” and the “first-pass inhibition (generation of saquinavir metabolites in presence of inhibitor)” value (Human Cytochrome P450 [2]) was “essentially ineffective”.

In the case of CC(=CCOc1c2ccoc2cc2oc(=O)ccc12)CCC(O)C(C)(C)O (centres unmarked) [6′,7′-dihydroxybergamottin], the “first-pass effect inhibition” value (Human Cytochrome P450 [1]) is reported as “ineffective”.

For CC(C)(C)c1ccc(C(O)CCCN2CCC(C(O)(c3ccccc3)c3ccccc3)CC2)cc1 (centres unmarked) [terfenadine], the “part of a tablet given by mouth quickly changed to metabolites” value [4] is listed as 99.5%.

For C/C(=C\COc1ccc2ccc(=O)oc2c1)CC[C@@H](O)C(C)(C)O [marmin], the “first-pass effect inhibition” value (Human Cytochrome P450 [1]) was “ineffective”.
